Patent US9737073B2, “Herbicidal weed control from combinations of fluroxypyr and ALS inhibitors” (Dow AgroSciences LLC, priority 2014, dated 2017)

Columns and labels:
Type in all cases: in vivo
[1] = test system: Abutilon theophrasti (velvetleaf, ABUTH); test: Postemergence herbicidal weed control, fluroxypyr-meptyl and chlorimuron-ethyl, field trials (Table 3)
Description: (§1) Seeds of the desired test plant species were planted in a peat-based potting soil, Metro-Mix 360® in plastic pots with a surface area of 128 square centimeters (cm^2). Metro-Mix 360® consists of formulated Canadian sphagnum peat moss, coarse perlite, bark ash, a starter nutrient charge (with gypsum), a slow-release nitrogen and dolomitic limestone. The plants were grown for 7-19 days in a greenhouse with an approximate 14-hour (h) photoperiod which was maintained at about 29° C. during the day and 26° C. during the night. Nutrients and water were added on a regular basis and supplemental lighting was provided with overhead metal halide 1000-Watt lamps as necessary. The plants were treated with postemergence foliar applications when they reached the third to fourth true leaf stage. All treatments were applied using a randomized complete block trial design, with 4 replications per treatment.
(§2) Treatments consisted of the compounds as listed in Tables 1 to 4, each compound applied alone and in combination. Commercially formulated products of fluroxypyr-meptyl (STARANE™, 333 grams acid equivalent per liter (g ae/L) EC), diclosulam (SPIDER® 84WG), cloransulam-methyl (FIRSTRATE™ 84WG), chlorimuron-ethyl (CLASSIC® 25WG) and thifensulfuron-methyl (HARMONY® 50SG). Formulated amounts of fluroxypyr-meptyl, diclosulam, cloransulam-methyl, chlorimuron-ethyl and thifensulfuron-methyl were placed in 60 milliliter (mL) glass vials and dissolved in a volume of 30 or 60 mL of a water solution containing Agri-dex crop oil concentrate in a 1% volume per volume (v/v) ratio. Compound requirements are based upon either a 30- or a 60-mL application volume at a rate of 200 liters per hectare (L/ha). Spray solutions of the mixtures were prepared by adding the stock solutions to the appropriate amount of dilution solution to form either a 30- or a 60-mL spray solution with active ingredients in single and two-way combinations. Formulated compounds were applied to the plant material with an overhead Generation III Research Sprayer manufactured by DeVries Manufacturing in Hollandale, Minn., USA. The track sprayer was equipped with an 8003E nozzle calibrated to deliver 200 L/ha at a spray height of 18 inches (43 centimeters (cm)) above average plant canopy.
(§3) The treated plants and untreated control plants were placed in a greenhouse as described above and watered by sub-irrigation to prevent wash-off of the test compounds.
(§4) Treatments were rated at 7 to 21 days after application (DAA) as compared to the untreated control plants. Visual weed control was scored on a scale of 0 to 100 percent where 0 corresponds to no injury and 100 corresponds to complete kill.
(§5) Field trials were conducted using standard herbicide small plot research methodology. Plots varied from 3×3.3 meter (m) to 4.5×10 m (width×length) with 4 replicates per treatment. The crops used in the field trials were grown using normal cultural practices for land preparation, fertilization, seeding and maintenance to ensure good growth of the crop and the weeds.
(§6) All treatments in the field trials were applied using either pressurized air or carbon dioxide (CO2) backpack or bicycle sprayers calibrated to apply 100-187 L/ha spray volume. Flat Fan spray nozzles were used in all trials, with water as the diluent applied at 275-300 kilopascals (kPa). Weed sizes at application ranged from 10 to 40 cm tall. Commercially available products of fluroxypyr-meptyl (STARANE™, 180 and 333 g ae/L EC), diclosulam (SPIDER® 84WG), and thifensulfuron-methyl (HARMONY® 75WG) were mixed in water at appropriately formulated product rates to achieve the desired rates based on a unit area of application (hectare) to achieve the desired rates as shown. No adjuvants were tank-mixed with any treatments applied in the field trials. Treatments were rated at 14-26 days after application as compared to the untreated control plants. […]

[2] = test system: Amaranthus rudis Sauer (common waterhemp, AMATA); test: as above
Description: as §1, §2, §3, §4, §5, §6

[3] = test system: Abutilon theophrasti (velvetleaf, ABUTH); test: Postemergence herbicidal weed control, fluroxypyr-meptyl and diclosulam, greenhouse trials (Table 1)
Description: as §1, §2, §3, §4
(§7) Colby's equation was used to determine the herbicidal effects expected from the mixtures (Colby, S. R. Calculation of the synergistic and antagonistic response of herbicide combinations. Weeds 196715, 20-22). A t-test (alpha=0.05) between Colby predictions and observed combinations was used to test for significant differences indicating synergy or antagonism. The results presented in the Tables were significant according to the described criteria.
(§8) The following equation was used to calculate the expected activity of mixtures containing two active ingredients, A and B: Expected=A+B−(A×B/100) • A=observed efficacy of active ingredient A at the same concentration as used in the mixture; • B=observed efficacy of active ingredient B at the same concentration as used in the mixture.

[4] = test system: Amaranthus rudis Sauer (common waterhemp, AMATA); test: as above
Description: as §1, §2, §3, §4, §7, §8

[5] = test system: Chenopodium album (common lambsquarters, CHEAL); test: as above
Description: as §1, §2, §3, §4, §7, §8

[6] = test system: Commelina benghalensis (tropical spiderwort, COMBE); test: as above
Description: as §5
(§9) All treatments in the field trials were applied using either pressurized air or carbon dioxide (CO2) backpack or bicycle sprayers calibrated to apply 100-187 L/ha spray volume. Flat Fan spray nozzles were used in all trials, with water as the diluent applied at 275-300 kilopascals (kPa). Weed sizes at application ranged from 10 to 40 cm tall. Commercially available products of fluroxypyr-meptyl (STARANE™, 180 and 333 g ae/L EC), diclosulam (SPIDER® 84WG), and thifensulfuron-methyl (HARMONY® 75WG) were mixed in water at appropriately formulated product rates to achieve the desired rates based on a unit area of application (hectare) to achieve the desired rates as shown. No adjuvants were tank-mixed with any treatments applied in the field trials. Treatments were rated at 14-26 days after application as compared to the untreated control plants. Visual weed control was scored on a scale of 0 to 100 percent where 0 corresponds to no injury and 100 corresponds to complete kill.
(§10) The treated plots and control plots were rated blind at various intervals after application. Ratings were reported on a Percent (%) Visual Control basis, where 0 corresponds to no visual effect/weed control and 100 corresponds to complete kill of the target weeds.
as §7, §8

[7] = test system: Sida cordifolia L. (heartleaf sida, SIDCO); test: as above; conditions: 14DAA1, 25.2 g ai/ha
Description: as §1
Treatments consisted of the compounds as listed in Tables 1 to 4, each compound applied alone and in combination. […]
Treatments were rated at 7 to 21 days after application (DAA) as compared to the untreated control plants. Visual weed control was scored on a scale of 0 to 100 percent where 0 corresponds to no injury and 100 corresponds to complete kill. […]

[8] = test system: Amaranthus retroflexus L. (redroot pigweed, AMARE); test: Postemergence herbicidal weed control, fluroxypyr-meptyl and thifensulfuron-methyl, field trials (Table 4); conditions: 21DAA1, 13.0 g ai/ha
Description: as §5, §9, §10, §7, §8

[9] = test system: Chenopodium album (common lambsquarters, CHEAL); test: as above; conditions: 21DAA1, 13.0 g ai/ha
Description: as §5, §9, §10, §7, §8

[10] = test system: Polygonum convolvulus L. (wild buckwheat, POLCO); test: as above; conditions: 21DAA1, 13.0 g ai/ha
Description: as §5, §9, §10, §7, §8

[11] = test system: Abutilon theophrasti (velvetleaf, ABUTH); test: as above
Description: as §1, §2, §3, §4, §5
(§11) All treatments in the field trials were applied using either pressurized air or carbon dioxide (CO2) backpack or bicycle sprayers calibrated to apply 100-187 L/ha spray volume. Flat Fan spray nozzles were used in all trials, with water as the diluent applied at 275-300 kilopascals (kPa). Weed sizes at application ranged from 10 to 40 cm tall. […]

[12] = test system: Amaranthus palmeri S. Wats. (Palmer amaranth, AMAPA); test: as above; conditions: 7DAA1, 2.2 g ai/ha
Description: as §1, §2, §3, §4, §5, §11

[13] = test system: Abutilon theophrasti (velvetleaf, ABUTH); test: Postemergence herbicidal weed control, fluroxypyr-meptyl and cloransulam-methyl, field trials (Table 2)
Description: as §1, §2, §3, §4, §5, §6

[14] = test system: Amaranthus rudis Sauer (common waterhemp, AMATA); test: as above
Description: as §1, §2, §3, §4, §5, §6

[15] = test system: Chenopodium album (common lambsquarters, CHEAL); test: as above
Description: as §1, §2, §3, §4, §5
as §9, with “Treatments were rated at 14-26 days after application as compared to the untreated control plants.” left out, “kill. […]” for “kill.”

## CCOC(=O)c1ccccc1S(=O)(=O)NC(=O)Nc1nc(Cl)cc(OC)n1 [Chlorimuron-ethyl, ethyl 2-[[[[(4-chloro-6-methoxy-2-pyrimidinyl)amino]carbonyl]amino]-sulfonyl]benzoate]
[1]; 14DAA1, 1.1 g ai/ha
  Chlorimuron-ethyl Mean % weed control: 56.3%
[1]; 14DAA1, 2.2 g ai/ha
  Chlorimuron-ethyl Mean % weed control: 62.5%
[2]; 7DAA1, 8.8 g ai/ha
  Chlorimuron-ethyl Mean % weed control: 41.3%
[2]; 14DAA1, 8.8 g ai/ha
  Chlorimuron-ethyl Mean % weed control: 28.8%

## CCOc1nc(F)cc2nc(S(=O)(=O)Nc3c(Cl)cccc3Cl)nn12 [Diclosulam, N-(2,6-dichlorophenyl)-5-ethoxy-7-fluoro[1,2,4]triazolo[1,5-c]pyrimidine-2-sulfonamide]
[3]; 14DAA1, 1.1 g ai/ha
  Diclosulam Mean % weed control: 28.8%
[3]; 21DAA1, 1.1 g ai/ha
  Diclosulam Mean % weed control: 30.0%
[4]; 8DAA1, 8.8 g ai/ha
  Diclosulam Mean % weed control: 51.3%
[4]; 14DAA1, 4.4 g ai/ha
  Diclosulam Mean % weed control: 28.8%
[4]; 14DAA1, 8.8 g ai/ha
  Diclosulam Mean % weed control: 27.5%
[4]; 21DAA1, 4.4 g ai/ha
  Diclosulam Mean % weed control: 25.0%
[4]; 21DAA1, 8.8 g ai/ha
  Diclosulam Mean % weed control: 28.8%
[5]; 8DAA1, 8.8 g ai/ha
  Diclosulam Mean % weed control: 38.3%
[5]; 14DAA1, 2.2 g ai/ha
  Diclosulam Mean % weed control: 3.3%
[5]; 14DAA1, 8.8 g ai/ha
  Diclosulam Mean % weed control: 21.7%
[5]; 21DAA1, 2.2 g ai/ha
  Diclosulam Mean % weed control: 5.0%
[5]; 21DAA1, 4.4 g ai/ha
  Diclosulam Mean % weed control: 16.7%
[5]; 21DAA1, 8.8 g ai/ha
  Diclosulam Mean % weed control: 31.7%
[6]; 14DAA1, 25.2 g ai/ha
  Diclosulam Mean % weed control: 41.3%
[6]; 26DAA1, 25.2 g ai/ha
  Diclosulam Mean % weed control: 17.5%
[7]
  Diclosulam Mean % weed control: 23.3%

## COC(=O)c1sccc1S(=O)(=O)NC(=O)Nc1nc(C)nc(OC)n1 [Thifensulfuron-methyl, methyl 3-[[[[(4-methoxy-6-methyl-1,3,5-triazin-2-yl)amino]carbonyl]amino]sulfonyl]-2-thiophenecarboxylate]
[8]
  Thifensulfuron-methyl Mean % weed control: 90.0%
[9]
  Thifensulfuron-methyl Mean % weed control: 90.0%
[10]
  Thifensulfuron-methyl Mean % weed control: 90.0%
[11]; 14DAA1, 0.6 g ai/ha
  Thifensulfuron-methyl Mean % weed control: 56.3%
[11]; 14DAA1, 1.1 g ai/ha
  Thifensulfuron-methyl Mean % weed control: 73.8%
[12]
  Thifensulfuron-methyl Mean % weed control: 22.5%

## CCOc1nc(F)cc2nc(S(=O)(=O)Nc3c(Cl)cccc3C(=O)OC)nn12 [Cloransulam-methyl, methyl 3-chloro-2-[[(5-ethoxy-7-fluoro[1,2,4]triazolo[1,5-c]pyrimidin-2-yl)sulfonyl]amino]benzoate]
[13]; 14DAA1, 1.1 g ai/ha
  Cloransulam-methyl Mean % weed control: 38.3%
[13]; 14DAA1, 4.4 g ai/ha
  Cloransulam-methyl Mean % weed control: 70.0%
[13]; 21DAA1, 1.1 g ai/ha
  Cloransulam-methyl Mean % weed control: 40.0%
[13]; 21DAA1, 4.4 g ai/ha
  Cloransulam-methyl Mean % weed control: 70.0%
[14]; 8DAA1, 4.4 g ai/ha
  Cloransulam-methyl Mean % weed control: 58.8%
[14]; 14DAA1, 4.4 g ai/ha
  Cloransulam-methyl Mean % weed control: 38.8%
[14]; 21DAA1, 4.4 g ai/ha
  Cloransulam-methyl Mean % weed control: 37.5%
[15]; 8DAA1, 4.4 g ai/ha
  Cloransulam-methyl Mean % weed control: 35.0%
[15]; 14DAA1, 1.1 g ai/ha
  Cloransulam-methyl Mean % weed control: 16.7%
[15]; 14DAA1, 4.4 g ai/ha
  Cloransulam-methyl Mean % weed control: 11.7%
[15]; 21DAA1, 1.1 g ai/ha
  Cloransulam-methyl Mean % weed control: 8.3%
[15]; 21DAA1, 4.4 g ai/ha
  Cloransulam-methyl Mean % weed control: 11.0%
[15]; 21DAA1, 8.8 g ai/ha
  Cloransulam-methyl Mean % weed control: 10.0%
